PMC9005681, “Use of AD Informer Set compounds to explore validity of novel targets in Alzheimer's disease pathology” (Alzheimer's & Dementia : Translational Research & Clinical …, 2022)
Several values for one entry are separate records, joined by “and”; a condition that tells them apart may be missing. Equal values may be shown once.

Assays:
cellular system = tested on: cellular system; parameters: method as in column References for potency and dosing (the 5th table c13); details: published data; References for potency and dosing; cited from earlier work
[1] = Snapshot IV PK in CD1 mice; type: in vivo; details: for Vd: read-out: Vss
Experimental: PK data: For snapshot PK studies, pooled plasma was analyzed at 0.5h, 1h, 2h, and 4h following
a single IV dose (3 mg/kg) in CD1 mice (2 mice per cohort) for each compound (Table 2). […]

[2] = molecular target: T1, cloned human or rodent CNS receptors, channels, and transporters (PDSP panel) (Homo sapiens, UniProt P28222); assay: PDSP GPCR panel primary binding assays at 10 μM; details: primary assay
T1 construct: expressed in transfected cells
T1 sequence (P28222 whole entry): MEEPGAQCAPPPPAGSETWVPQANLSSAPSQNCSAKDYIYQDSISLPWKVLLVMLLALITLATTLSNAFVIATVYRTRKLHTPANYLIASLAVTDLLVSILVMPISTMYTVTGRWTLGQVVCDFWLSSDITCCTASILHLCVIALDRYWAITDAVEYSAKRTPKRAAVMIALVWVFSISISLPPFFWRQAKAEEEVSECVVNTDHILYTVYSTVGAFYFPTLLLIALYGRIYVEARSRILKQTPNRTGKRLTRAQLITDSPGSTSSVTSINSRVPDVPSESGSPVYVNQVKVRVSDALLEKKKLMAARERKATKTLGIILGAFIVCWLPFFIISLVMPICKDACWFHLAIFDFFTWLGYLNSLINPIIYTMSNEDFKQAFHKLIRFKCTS
Experimental: (§1) GPCR panel: Screening against the receptors within the PDSP panel offers an assessment of off-target pharmacological activity at cloned human or rodent CNS receptors, channels, and transporters that could confound CNS-related phenotypes. A total of 46–47 primary binding assays were run in quadruplicate on these compounds at 10 μM, with follow-up secondary binding assays in 11-point dose-response in triplicate for select compounds versus select receptors. Secondary binding assays were executed for all receptors where test compound displaced an average of >50% of radio-labeled standard ligand. As an exception, no secondary assays were carried out for H3, PBR, or GABAA. […]

[3] = molecular target: T2, cloned human or rodent CNS receptors, channels, and transporters (PDSP panel) (Homo sapiens, UniProt P08908); assay: PDSP GPCR panel primary binding assays at 10 μM; details: primary assay
T2 construct: expressed in transfected cells
T2 sequence (P08908 1-422): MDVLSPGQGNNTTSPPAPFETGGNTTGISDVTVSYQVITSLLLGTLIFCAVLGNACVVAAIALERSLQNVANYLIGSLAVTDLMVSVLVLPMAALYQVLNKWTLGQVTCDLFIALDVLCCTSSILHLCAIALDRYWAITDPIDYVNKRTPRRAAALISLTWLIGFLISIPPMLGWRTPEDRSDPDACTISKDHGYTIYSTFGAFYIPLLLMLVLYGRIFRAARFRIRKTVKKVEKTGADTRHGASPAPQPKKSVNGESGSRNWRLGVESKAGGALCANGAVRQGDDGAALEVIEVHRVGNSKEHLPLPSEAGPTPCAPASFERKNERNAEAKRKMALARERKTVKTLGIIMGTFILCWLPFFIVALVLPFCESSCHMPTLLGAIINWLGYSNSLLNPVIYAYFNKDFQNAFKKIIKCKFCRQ
Experimental: as §1

[4] = molecular target: T3, cloned human or rodent CNS receptors, channels, and transporters (PDSP panel) (Homo sapiens, UniProt P14416); assay: PDSP GPCR panel primary binding assays at 10 μM; details: primary assay
T3 construct: expressed in transfected cells
T3 sequence (P14416 whole entry): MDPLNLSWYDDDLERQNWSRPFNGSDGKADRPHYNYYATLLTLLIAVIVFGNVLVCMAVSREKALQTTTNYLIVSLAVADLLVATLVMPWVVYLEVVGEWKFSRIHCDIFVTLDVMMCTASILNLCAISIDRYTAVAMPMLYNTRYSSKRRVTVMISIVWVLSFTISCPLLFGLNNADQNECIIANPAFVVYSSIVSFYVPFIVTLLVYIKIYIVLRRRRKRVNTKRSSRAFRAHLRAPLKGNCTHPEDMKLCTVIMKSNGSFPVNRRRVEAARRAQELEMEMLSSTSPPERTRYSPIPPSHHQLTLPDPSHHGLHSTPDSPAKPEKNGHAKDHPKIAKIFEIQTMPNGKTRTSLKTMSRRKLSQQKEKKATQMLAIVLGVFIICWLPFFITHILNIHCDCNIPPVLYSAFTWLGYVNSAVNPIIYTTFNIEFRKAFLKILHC
Experimental: as §1

[5] = molecular target: T4, cloned human or rodent CNS receptors, channels, and transporters (PDSP panel) (Homo sapiens, UniProt P21918); assay: PDSP GPCR panel primary binding assays at 10 μM; details: primary assay
T4 construct: expressed in transfected cells
T4 sequence (P21918 whole entry): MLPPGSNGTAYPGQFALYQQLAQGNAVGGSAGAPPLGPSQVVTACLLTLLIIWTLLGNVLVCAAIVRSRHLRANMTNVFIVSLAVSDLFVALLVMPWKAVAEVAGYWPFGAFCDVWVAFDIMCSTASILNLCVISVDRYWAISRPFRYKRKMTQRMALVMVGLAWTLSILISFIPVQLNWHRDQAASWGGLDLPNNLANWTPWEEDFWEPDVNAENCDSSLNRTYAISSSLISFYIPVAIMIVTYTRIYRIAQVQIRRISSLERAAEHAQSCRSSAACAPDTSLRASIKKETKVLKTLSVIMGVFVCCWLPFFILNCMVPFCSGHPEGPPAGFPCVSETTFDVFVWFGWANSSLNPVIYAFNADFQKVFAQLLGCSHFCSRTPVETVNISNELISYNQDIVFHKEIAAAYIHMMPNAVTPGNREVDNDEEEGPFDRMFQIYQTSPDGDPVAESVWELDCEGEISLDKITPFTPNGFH
Experimental: as §1

[6] = molecular target: T5, cloned human or rodent CNS receptors, channels, and transporters (PDSP panel) (Homo sapiens, UniProt P35462); assay: PDSP GPCR panel primary binding assays at 10 μM; details: primary assay
T5 construct: expressed in transfected cells
T5 sequence (P35462 whole entry): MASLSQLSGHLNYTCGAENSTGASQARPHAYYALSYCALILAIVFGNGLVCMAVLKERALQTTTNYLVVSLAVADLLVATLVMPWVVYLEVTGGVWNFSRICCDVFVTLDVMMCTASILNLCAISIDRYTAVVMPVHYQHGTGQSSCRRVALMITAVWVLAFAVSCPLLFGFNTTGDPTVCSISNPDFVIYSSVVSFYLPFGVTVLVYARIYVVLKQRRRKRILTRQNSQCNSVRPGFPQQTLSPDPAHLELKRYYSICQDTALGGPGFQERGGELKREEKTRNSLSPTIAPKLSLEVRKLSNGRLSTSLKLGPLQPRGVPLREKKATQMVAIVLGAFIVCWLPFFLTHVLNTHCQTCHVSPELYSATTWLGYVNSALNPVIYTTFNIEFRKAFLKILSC
Experimental: as §1

[7] = molecular target: T6, cloned human or rodent CNS receptors, channels, and transporters (PDSP panel) (Homo sapiens, UniProt P23975); assay: PDSP GPCR panel primary binding assays at 10 μM; details: primary assay
T6 construct: expressed in transfected cells
T6 sequence (P23975 whole entry): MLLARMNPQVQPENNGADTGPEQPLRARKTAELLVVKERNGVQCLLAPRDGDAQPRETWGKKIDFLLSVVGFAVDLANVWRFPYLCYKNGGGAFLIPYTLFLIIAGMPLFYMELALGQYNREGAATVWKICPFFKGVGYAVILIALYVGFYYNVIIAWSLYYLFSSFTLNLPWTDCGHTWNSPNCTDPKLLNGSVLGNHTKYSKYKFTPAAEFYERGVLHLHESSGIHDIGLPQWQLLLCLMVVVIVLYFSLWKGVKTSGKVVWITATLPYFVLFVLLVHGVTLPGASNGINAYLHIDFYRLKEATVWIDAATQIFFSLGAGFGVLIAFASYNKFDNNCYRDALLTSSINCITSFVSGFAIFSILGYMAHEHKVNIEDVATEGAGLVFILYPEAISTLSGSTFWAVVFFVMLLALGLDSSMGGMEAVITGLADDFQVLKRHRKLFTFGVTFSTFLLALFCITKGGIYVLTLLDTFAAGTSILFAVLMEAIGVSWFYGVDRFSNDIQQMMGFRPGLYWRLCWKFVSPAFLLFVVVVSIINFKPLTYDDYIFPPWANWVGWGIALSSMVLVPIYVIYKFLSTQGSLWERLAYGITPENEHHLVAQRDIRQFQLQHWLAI
Experimental: as §1

[8] = molecular target: T7, cloned human or rodent CNS receptors, channels, and transporters (PDSP panel) (Homo sapiens, UniProt P41595); assay: PDSP GPCR panel primary binding assays at 10 μM; details: primary assay
T7 construct: expressed in transfected cells
T7 sequence (P41595 whole entry): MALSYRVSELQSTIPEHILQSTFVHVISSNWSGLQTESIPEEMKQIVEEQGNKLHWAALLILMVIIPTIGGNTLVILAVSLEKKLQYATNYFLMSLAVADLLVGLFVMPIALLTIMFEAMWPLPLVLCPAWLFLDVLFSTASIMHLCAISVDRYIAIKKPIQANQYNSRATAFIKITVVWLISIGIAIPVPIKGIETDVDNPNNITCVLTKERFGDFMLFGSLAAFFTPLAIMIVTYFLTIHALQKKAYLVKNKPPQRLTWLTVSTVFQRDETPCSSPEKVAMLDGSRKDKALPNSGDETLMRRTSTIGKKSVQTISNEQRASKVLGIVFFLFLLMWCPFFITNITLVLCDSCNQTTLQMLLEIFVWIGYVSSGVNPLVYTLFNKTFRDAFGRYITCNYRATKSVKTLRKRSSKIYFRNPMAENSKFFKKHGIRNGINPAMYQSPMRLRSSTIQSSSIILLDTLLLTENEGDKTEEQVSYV
Experimental: as §1

[9] = molecular target: T8, cloned human or rodent CNS receptors, channels, and transporters (PDSP panel) (Homo sapiens, UniProt P08172); assay: PDSP GPCR panel primary binding assays at 10 μM; details: primary assay
T8 construct: expressed in transfected cells
T8 sequence (P08172 1-466): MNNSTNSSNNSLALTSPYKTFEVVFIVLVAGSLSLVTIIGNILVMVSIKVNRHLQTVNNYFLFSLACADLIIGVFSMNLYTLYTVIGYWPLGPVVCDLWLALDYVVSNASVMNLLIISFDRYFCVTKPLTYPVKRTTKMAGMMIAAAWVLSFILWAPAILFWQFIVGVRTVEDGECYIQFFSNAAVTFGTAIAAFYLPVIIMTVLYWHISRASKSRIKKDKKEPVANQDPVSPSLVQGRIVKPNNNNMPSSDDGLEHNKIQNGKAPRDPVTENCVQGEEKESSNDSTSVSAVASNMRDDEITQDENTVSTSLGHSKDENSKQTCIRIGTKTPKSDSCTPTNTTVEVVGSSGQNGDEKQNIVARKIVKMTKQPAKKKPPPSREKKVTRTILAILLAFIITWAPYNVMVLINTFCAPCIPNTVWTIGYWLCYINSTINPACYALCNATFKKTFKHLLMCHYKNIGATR
Experimental: as §1

[10] = molecular target: T9, cloned human or rodent CNS receptors, channels, and transporters (PDSP panel) (Homo sapiens, UniProt P50406); assay: PDSP GPCR panel primary binding assays at 10 μM; details: primary assay
T9 construct: expressed in transfected cells
T9 sequence (P50406 whole entry): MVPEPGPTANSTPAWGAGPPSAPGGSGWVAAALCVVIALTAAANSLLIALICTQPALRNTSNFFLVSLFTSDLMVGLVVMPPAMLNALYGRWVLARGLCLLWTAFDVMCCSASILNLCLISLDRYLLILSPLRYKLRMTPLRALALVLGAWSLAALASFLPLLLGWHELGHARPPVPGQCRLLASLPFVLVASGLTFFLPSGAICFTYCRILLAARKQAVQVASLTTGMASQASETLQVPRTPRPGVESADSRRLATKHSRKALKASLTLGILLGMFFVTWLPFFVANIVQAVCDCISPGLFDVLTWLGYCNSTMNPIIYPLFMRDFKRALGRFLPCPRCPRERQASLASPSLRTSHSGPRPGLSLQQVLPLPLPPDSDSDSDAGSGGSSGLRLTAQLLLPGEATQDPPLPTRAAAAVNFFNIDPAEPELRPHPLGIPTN
Experimental: as §1

[11] = cited from earlier work; for Kinetic solubility: aqueous, neutral pH (7.4)

For `c1cn2cc(-c3ccc4cn[nH]c4c3)nc(Nc3ccc(N4CCOCC4)cc3)c2n1` [UNC10302678A, Entospletinib (GS-9973)], the “Reported as cell active (<10 μM)” value (cellular system) is given as “Y (Published data supports that the compound is active in a cellular system when dosed at 10 μM (Y/N))”, the Cmax ([1]; CD1, in vivo, mouse, 3.0 mg/kg) is given as 926 ng/mL and the clearance ([1]; CD1, plasma, mouse, 3.0 mg/kg) is given as 28.5 mL/min/kg. The half-life ([1]; CD1, plasma, mouse, 3.0 mg/kg) was 54 min, the Vd ([1]; CD1, plasma, mouse, 3.0 mg/kg) was 2.34 L/kg and the “Inhibition 1” value ([2]; Receptor 5-HT1B, 10 μM) was 21.82%. For the same compound, the “Inhibition 2” value ([2]; Receptor 5-HT1B, 10 μM) was -6.09%, the “Inhibition 3” value ([2]; Receptor 5-HT1B, 10 μM) was 2.36% and the “Inhibition 4” value ([2]; Receptor 5-HT1B, 10 μM) was -8.65%. For the same compound, the Mean % ([2]; Receptor 5-HT1B, 10 μM, mean of Inhibition 1-4) was 2.36%, the “Inhibition 1” value ([3]; Receptor 5-HT1A, 10 μM) was 14.91% and the “Inhibition 2” value ([3]; Receptor 5-HT1A, 10 μM) was -0.95%. For the same compound, the “Inhibition 3” value ([3]; Receptor 5-HT1A, 10 μM) was -3.19%, the “Inhibition 4” value ([3]; Receptor 5-HT1A, 10 μM) was 6.29% and the Mean % ([3]; Receptor 5-HT1A, 10 μM, mean of Inhibition 1-4) was 4.27%. For the same compound, the “Inhibition 1” value ([4]; Receptor D2, 10 μM) was 15.89%, the “Inhibition 2” value ([4]; Receptor D2, 10 μM) was 4.51% and the “Inhibition 3” value ([4]; Receptor D2, 10 μM) was -1.13%. For the same compound, the “Inhibition 4” value ([4]; Receptor D2, 10 μM) was -7.35%, the Mean % ([4]; Receptor D2, 10 μM, mean of Inhibition 1-4) was 2.98% and the “Inhibition 1” value ([5]; Receptor D5, 10 μM) was 5.49%. The “Inhibition 2” value ([5]; Receptor D5, 10 μM) was 5.93%, the “Inhibition 3” value ([5]; Receptor D5, 10 μM) was 8.99% and the “Inhibition 4” value ([5]; Receptor D5, 10 μM) was 11.03%. For the same compound, the Mean % ([5]; Receptor D5, 10 μM, mean of Inhibition 1-4) was 7.86%, the “Inhibition 1” value ([6]; Receptor D3, 10 μM) was -22.2% and the “Inhibition 2” value ([6]; Receptor D3, 10 μM) was -12.17%. The “Inhibition 3” value ([6]; Receptor D3, 10 μM) was 0%, the “Inhibition 4” value ([6]; Receptor D3, 10 μM) was -11.01% and the Mean % ([6]; Receptor D3, 10 μM, mean of Inhibition 1-4) was -11.35%. For the same compound, the “Inhibition 1” value ([7]; Receptor NET, 10 μM) was -3.87% and -2.7%, the “Inhibition 2” value ([7]; Receptor NET, 10 μM) was -11.22% and -16.36% and the “Inhibition 3” value ([7]; Receptor NET, 10 μM) was -0.44% and -2.13%. The Mean % ([7]; Receptor NET, 10 μM, mean of Inhibition 1-4) was 1.02% and -6.36%, the “Inhibition 1” value ([8]; Receptor 5-HT2B, 10 μM) was 61.2% and the “Inhibition 2” value ([8]; Receptor 5-HT2B, 10 μM) was 0.79%. The “Inhibition 3” value ([8]; Receptor 5-HT2B, 10 μM) was -21.45%, the “Inhibition 4” value ([8]; Receptor 5-HT2B, 10 μM) was 15.05% and the Mean % ([8]; Receptor 5-HT2B, 10 μM, mean of Inhibition 1-4) was 13.9%. For the same compound, the “Inhibition 1” value ([9]; Receptor M2, 10 μM) was -17.67%, the “Inhibition 2” value ([9]; Receptor M2, 10 μM) was -16.44% and the “Inhibition 3” value ([9]; Receptor M2, 10 μM) was -12.26%. The “Inhibition 4” value ([9]; Receptor M2, 10 μM) was -13.73%, the Mean % ([9]; Receptor M2, 10 μM, mean of Inhibition 1-4) was -15.03% and the “Inhibition 1” value ([10]; Receptor 5-HT6, 10 μM) was -41.25%. For the same compound, the “Inhibition 2” value ([10]; Receptor 5-HT6, 10 μM) was -29.65%, the “Inhibition 3” value ([10]; Receptor 5-HT6, 10 μM) was -11.39% and the “Inhibition 4” value ([10]; Receptor 5-HT6, 10 μM) was -15.68%. The Mean % ([10]; Receptor 5-HT6, 10 μM, mean of Inhibition 1-4) was -24.49%, the Kinetic solubility [11] was 0.5 µM and the “Kinetic solubility (in words)” value ([11]; kinetic solubility experiments) was “solubility issues”.
In the case of `CNc1nc(C)nc(N[C@H]2CCC[C@@H](C(=O)NCc3ccc(C#N)cc3C(F)(F)F)C2)n1` [UNC10302679A, GSK2256294A], the “Reported as cell active (<10 μM)” value (cellular system) is given as “Y (Published data supports that the compound is active in a cellular system when dosed at 10 μM (Y/N))”, the clearance ([1]; CD1, mouse, plasma, iv, 3 mg/kg) is given as 26.3 mL/min/kg and the Cmax ([1]; CD1, plasma, mouse, 3.0 mg/kg) is given as 4010 ng/mL. For the same compound, the half-life ([1]; CD1, plasma, mouse, 3.0 mg/kg) was 38.4 min, the Vd ([1]; CD1, plasma, mouse, 3.0 mg/kg) was 0.62 L/kg and the Mean % ([2]; 5-HT1B, mean inhibition) was -2.56%. The “Inhibition 1” value ([2]; 5-HT1B, replicate 1) was 6.88%, the “Inhibition 2” value ([2]; 5-HT1B, replicate 2) was -14.35% and the “Inhibition 3” value ([2]; 5-HT1B, replicate 3) was 0.2%. For the same compound, the “Inhibition 4” value ([2]; 5-HT1B, replicate 4) was -2.95%, the Mean % ([3]; 5-HT1A, mean inhibition) was 4.14% and the “Inhibition 1” value ([3]; 5-HT1A, replicate 1) was 11.98%. The “Inhibition 2” value ([3]; 5-HT1A, replicate 2) was 4.74%, the “Inhibition 3” value ([3]; 5-HT1A, replicate 3) was -9.57% and the “Inhibition 4” value ([3]; 5-HT1A, replicate 4) was 9.39%. The Mean % ([4]; D2, mean inhibition) was -7.22%, the “Inhibition 1” value ([4]; D2, replicate 1) was 3.31% and the “Inhibition 2” value ([4]; D2, replicate 2) was -5.21%. The “Inhibition 3” value ([4]; D2, replicate 3) was -10.66%, the “Inhibition 4” value ([4]; D2, replicate 4) was -16.31% and the Mean % ([5]; D5, mean inhibition) was -9.97%. The “Inhibition 1” value ([5]; D5, replicate 1) was 0.61%, the “Inhibition 2” value ([5]; D5, replicate 2) was -8.1% and the “Inhibition 3” value ([5]; D5, replicate 3) was -21.39%. For the same compound, the “Inhibition 4” value ([5]; D5, replicate 4) was -11%, the Mean % ([6]; D3, mean inhibition) was -12.51% and the “Inhibition 1” value ([6]; D3, replicate 1) was -10.05%. The “Inhibition 2” value ([6]; D3, replicate 2) was -18.34%, the “Inhibition 3” value ([6]; D3, replicate 3) was -11.4% and the “Inhibition 4” value ([6]; D3, replicate 4) was -10.24%. For the same compound, the Mean % ([7]; NET, mean inhibition) was -0.13% and 6.71%, the “Inhibition 1” value ([7]; NET, replicate 1) was 26.63% and -24.8% and the “Inhibition 2” value ([7]; NET, replicate 2) was 1.57% and -7.07%. The “Inhibition 3” value ([7]; NET, replicate 3) was -2.48% and 7.39%, the “Inhibition 4” value ([7]; NET, replicate 4) was -26.22% and 51.32% and the Mean % ([8]; 5-HT2B, mean inhibition) was -22.71%. The “Inhibition 1” value ([8]; 5-HT2B, replicate 1) was -0.89%, the “Inhibition 2” value ([8]; 5-HT2B, replicate 2) was -25.64% and the “Inhibition 3” value ([8]; 5-HT2B, replicate 3) was -26.48%. For the same compound, the “Inhibition 4” value ([8]; 5-HT2B, replicate 4) was -37.81%, the Mean % ([9]; M2, mean inhibition) was -9.25% and the “Inhibition 1” value ([9]; M2, replicate 1) was -13.73%. For the same compound, the “Inhibition 2” value ([9]; M2, replicate 2) was -23.07%, the “Inhibition 3” value ([9]; M2, replicate 3) was -14.72% and the “Inhibition 4” value ([9]; M2, replicate 4) was 14.53%. For the same compound, the Mean % ([10]; 5-HT6, mean inhibition) was -6.87%, the “Inhibition 1” value ([10]; 5-HT6, replicate 1) was 12.58% and the “Inhibition 2” value ([10]; 5-HT6, replicate 2) was -11.55%. For the same compound, the “Inhibition 3” value ([10]; 5-HT6, replicate 3) was -17.27%, the “Inhibition 4” value ([10]; 5-HT6, replicate 4) was -11.23% and the Kinetic solubility [11] was 147.5 µM.
